Values joined by “and” are separate entries in the source; they are usually repeats but may differ in a detail not shown here. Equal entries are not always repeated.
Test system: pigmented rabbits (Chinchilla Bastard)
Assay: IOP study in pigmented rabbits after single eye drop
Assay type: in vivo, rabbit
Method: Five 3–5 months old albino (New Zealand White, all females) and five 3–6 months old pigmented rabbits (Chinchilla Bastard, 1 male and 4 females) were purchased from Charles River Laboratories, UK and Germany, respectively. Prior to the experiments, the rabbits were habituated to handling, and the baseline values of IOP were measured. During the experiments, rabbits weighed 2.4–4.0 kg.
First, stock solutions of CAIs (250 mg/mL) in dimethyl sulfoxide (Sigma-Aldrich, Germany) were prepared. These stock solutions were diluted with PBS (pH 7.4) to obtain 1 mg/mL (0.1%) or 10 mg/mL (1%) solutions.
The CAI solutions were tested in albino rabbits (eye drops of 0.1, and 0.5 or 1.0%) and in pigmented rabbits (0.5 or 1.0%). The novel CAI concentrations in solutions were determined based on the drug solubility with the aim to load the highest possible drug concentration to the single eye drop.
Baseline IOP of pigmented rabbits was raised with two intravitreal triamcinolone acetonide injections (Triesence 40 mg/mL, Novartis Finland Ltd.) with 1 week interval to each eye. This method[25],[26] may induce ocular hypertension even up to 60 days in rabbits.[25]
The rabbits were anesthetized with 0.4 mg/kg, s.c. medetomidine (Domitor vet 1 mg/mL, Orion Pharma, Espoo, Finland) and 20 mg/kg s.c. ketamine (Ketaminol vet 50 mg/mL, Pfizer Oy Animal Health, Espoo, Finland). Mydriasis was induced with topical tropicamide eyedrops (Oftan Tropicamid 5 mg/mL, Santen Pharmaceutical Co., Ltd., Tampere, Finland) and the ocular surface was anesthetized with oxybuprocaine eye drop (Oftan Obucain 4 mg/mL, Santen Pharmaceutical Co., Ltd., Tampere, Finland). Thereafter, intravitreal injection of triamcinolone acetonide (100 μL) was given with a 31G needle and syringe. After injection, the eyes were moisturized with carbomer gel (Viscotears 2 mg/g, Dr. Gerhard Mann chem.-pharm. Fabrik GmbH, Berlin, Germany) and the anesthesia was antagonized with 1 mg/kg atipamezole s.c. (Antisedan vet 5 mg/mL, Orion Pharma, Espoo, Finland).
After the second injection, IOP was allowed to settle for 10 days before the experiments were performed. […] Induction of ocular hypertension is presented in Appendix Figure 3. The IOP-lowering effects of the molecules were investigated sequentially, each test initiating once baseline IOP levels was attained.
The IOP levels in the rabbits were measured with a tonometer (Tonometer Pro, Icare Finland Ltd.). After baseline IOP measurements, a single eye drop (25 μL) was applied to the left eye, whereas the right eye was not treated. After eye drop instillation, the eyelids were kept open manually for 1 min. The IOP was measured from both eyes of the rabbits at 0.5, 1, 2, 3, 4, 5, 6, 7, and 8 h after eye drop instillation. In the case of the pigmented rabbits, the measurements were continued until 10 h postinstillation, and further until the IOP had returned to the normal baseline.
The CAIs were tested in the same rabbits to minimize interindividual data variation. Washout periods of at least 3 days were used between instillation of different compounds. The experiments started always at 8 a.m. to eliminate bias due to diurnal IOP fluctuation. At each time point, the pressure was measured three times with the same eye, and the average values were calculated and used in data analysis.

C/C(=N\Nc1ccc(S(N)(=O)=O)cc1)c1cccnc1 [A01]
duration of IOP reduction (hypertensive pigmented rabbits, single eye drop): 14 days | duration of IOP decrease (pigmented rabbits, single eye drop): 2 weeks | ratio (AUCpigm/AUCalbino) of IOP response (pigmented vs albino rabbits): 85 and 85.5

Source: paper PMC11795524, “Melanin-Binding-Based Discovery of Topically Instilled Carbonic Anhydrase Inhibitors for Targeted Delivery and Prolonged Action in the Eye” (Molecular Pharmaceutics, 2025)
